Results published in patent US20250273312A1, “SYSTEM AND METHOD FOR IMMUNOSUPPRESSANT DOSAGE” (THE REGENTS OF THE UNIVERSITY OF CALIFORNIA, priority 2021, published 2025).

Legend:
[1] = human, in vivo
Excerpt: (§1) The inclusion criteria for the study was (1) the subject was undergoing primary or secondary liver or simultaneous liver and kidney transplantation; (2) the subject or a surrogate was able to provide informed consent; and (3) the subject was at least 18 years of age. […] Sixty two (62) subjects were accepted into the trial.
Each of the 62 selected subjects were randomized, with half (31) assigned to a control group and the other half (31) assigned to a phenotypic personalized medicine (PPM) group. The subjects were blinded to group assignments; the clinical team was not blinded. […] The SOC dosing utilized a combination of dose titration and a subjective determination by a clinician. The subjective determination relied on patient weight, age, muscle mass, race/ethnicity, frailty, diet, concomitant medication, and other factors to select an initial dose for the next twenty-four hours. The patient's response to this dose is then taken into consideration for determining the next day's dose recommendation. This determination was repeated each day until the patient was able to be released from the hospital.
After the third day, the Control group continued with the standard-of-care procedure while the PPM group subjects were given dosages calculated by the PPM prediction model, shown in the Function below. […]

[2] = Same clinical trial: clinical outcomes (length of stay, AST normalization, neurotoxicity); type: in vivo, human
Excerpt: as §1
Each of the 62 selected subjects were randomized, with half (31) assigned to a control group and the other half (31) assigned to a phenotypic personalized medicine (PPM) group. The subjects were blinded to group assignments; the clinical team was not blinded. The patients in the PPM group were given tacrolimus dosages based on the present dosage calculation system and patients of the Control group were given tacrolimus dosages based on standard-of-care (SOC) dosing. The SOC dosing utilized a combination of dose titration and a subjective determination by a clinician. The subjective determination relied on patient weight, age, muscle mass, race/ethnicity, frailty, diet, concomitant medication, and other factors to select an initial dose for the next twenty-four hours. The patient's response to this dose is then taken into consideration for determining the next day's dose recommendation. This determination was repeated each day until the patient was able to be released from the hospital.
Tacrolimus dosage was discontinued for one patient in each of the PPM group and the Control group. […] As this would affect dosing accuracy and the study outcomes, this patient was excluded from analysis. One patient assigned to the Control group refused multiple tacrolimus doses in the post-operative period and was therefore excluded from analysis. The remaining 56 (29 Control group and 27 PPM group) patients completed the study and were discharged from the hospital after transplantation.
Following liver transplantation, all study patients were started on standard-of-care medication regimen: a three-drug combination of tacrolimus, a corticosteroid, and mycophenolate. Blood tacrolimus trough levels were measured daily in the morning until patient discharge. […] After the third day, the Control group continued with the standard-of-care procedure while the PPM group subjects were given dosages calculated by the PPM prediction model, shown in the Function below.
The primary outcome measure was percent days with large (>2 ng/ml) deviations from target range. Secondary outcomes included percent days outside-of-target range, ratio of area-under-the-curve outside-of-target-range to total days, graft rejection, graft failure, death, infections, length of stay, nephrotoxicity episodes, or neurotoxicity episodes. Comparisons between the two groups were performed using either the two-tailed Welch's t-test or Student's t-test. For nonparametric (non-normal) distributions, a two-tailed Levene's test was used to compare variances and a two-tailed Wilcoxon Rank Sum test was used to compare medians. Logistic regression was used to dichotomize the length of stay after transplant and the percent days out of target range for comparison. Statistical analyses were performed on JMP Pro 16.1.0.

[3] = Average deviation between target (predicted) and measured tacrolimus serum level for dosing Functions 0, 1, 2; set-up: species or system human; conditions: unit assumed
Excerpt: Additionally, data from the clinical trial was utilized to determine the average deviations between a target (i.e., predicted) serum level and an actual (i.e., measured) serum level for the two PPM patients.
Where Function 0 is ST(DT, t)=x0(t)+x1(t)DT+x11(t)DT^2; Function 1 is [(D/S)T](N+1) day=[(D/S)T]N day; and Function 2 is [(D/S)T]next day=x0(t)+x1(t)[AST×(D/S)T]today+z11(t)[AST×(D/S)T] today. […] By incorporating the AST level the current system and methods can provide further improvement in achieving a target serum levels

With `C=CC[C@@H]1/C=C(\C)C[C@H](C)C[C@H](OC)[C@H]2O[C@@](O)(C(=O)C(=O)N3CCCC[C@H]3C(=O)O[C@H](/C(C)=C/[C@@H]3CC[C@@H](O)[C@H](OC)C3)[C@H](C)[C@@H](O)CC1=O)[C@H](C)C[C@@H]2OC` [tacrolimus] the “decrease in the percentage of days with a large deviation from the target trough drug level” value [1] was 37%, the “reduction of the mean AUC outside of target range” value [1] was 30% and the “days after liver transplant until release from hospital” value ([2]; Control Patient, conventional titration) was 19 days. For the same molecule, the average hospital stay ([2]; Control group) was 15.87 days, the “day by which 90% of the patients were discharged” value ([2]; Control group) was 25 days and the “share of group with post-transplant length of stay two weeks or more” value ([2]; Control group) was 65.5%. The “median days to normalize AST levels (DAST)” value ([2]; Control group (Q1-Q3 6.25-11.75)) was 8.5 days, the “median length-of-stay (LOS)” value ([2]; Control group (Q1-Q3 10.5-20.5)) was 15 days and the average hospital stay ([2]; Control group, two patients with the longest stay removed) was 14.36 days. The “days after liver transplant until release from hospital” value ([2]; First PPM Patient) was 12 days, the average hospital stay ([2]; PPM group) was 10.42 days and the “day by which 90% of the patients were discharged” value ([2]; PPM group) was 15 days. For the same molecule, the “share of group with post-transplant length of stay two weeks or more” value ([2]; PPM group (5/27)) was 18.5%, the “median days to normalize AST levels (DAST)” value ([2]; PPM group (Q1-Q3 4-8)) was 6 days and the “median length-of-stay (LOS)” value ([2]; PPM group (Q1-Q3 8-12)) was 10 days. For the same molecule, the “reduction in the post-transplant length of stay” value ([2]; PPM group versus Control group) was “more than 30%”, the average hospital stay ([2]; PPM group, two patients with the longest stay removed) was 8 days and the “day of release from hospital” value ([2]; Second PPM Patient) was 11 days. For the same molecule, the “neurotoxicity leading to discontinuation of tacrolimus” value ([2]; one patient in each of the PPM group and the Control group, evidenced by brain imaging) was “neurotoxicity within the first week after transplant that was deemed not dose related”, the Average Deviation from Target Serum Level ([3]; Function 0, first row of Table 5 (one of the two PPM patients)) was 2.9 ng/mL and the Average Deviation from Target Serum Level ([3]; Function 0, second row of Table 5 (one of the two PPM patients)) was 1.6 ng/mL. It also gave an Average Deviation from Target Serum Level ([3]; Function 1, first row of Table 5) of 2 ng/mL, an Average Deviation from Target Serum Level ([3]; Function 1, second row of Table 5) of 1.2 ng/mL and an Average Deviation from Target Serum Level ([3]; Function 2, first row of Table 5) of 1.4 ng/mL. For the same molecule, the Average Deviation from Target Serum Level ([3]; Function 2, second row of Table 5) was 0.6 ng/mL.
